We go through 3 molecules from PMC7825302, “Tetraoctylammonium, a Long Chain Quaternary Ammonium Blocker, Promotes a Noncollapsed, Resting-Like Inactivated State in KcsA” (International Journal of Molecular Sciences, 2021).

One series deals with T1, KcsA (Streptomyces lividans, UniProt P0A334).
T1 construct: wild-type (WT) KcsA, homotetramer, His-tag purified from E. coli, in DDM detergent
T1 sequence (P0A334 1-160): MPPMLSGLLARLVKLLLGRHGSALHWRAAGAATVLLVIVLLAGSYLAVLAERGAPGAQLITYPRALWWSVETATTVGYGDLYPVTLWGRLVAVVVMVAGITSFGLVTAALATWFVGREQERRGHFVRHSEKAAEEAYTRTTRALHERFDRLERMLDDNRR
The series is described as follows: thermal denaturation (intrinsic fluorescence) titration with fitted KD; pH […] (pH […]). Format: binding.

The target of another series is T2, W67 KcsA (Streptomyces lividans, UniProt P0A334, W113F/W26F/W68F/W87F).
T2 construct: quadruple mutant KcsA with a single Trp (W67) per subunit, homotetramer, His-tag purified from E. coli, in DDM detergent
As to the kind of experiment: thermal denaturation titration with fitted KD; pH […] (pH […]); effect supported by homo-FRET. The class given is binding.

In series [1] the target is T3, wild-type KcsA potassium channel (Streptomyces lividans), P0A334.
T3 chain: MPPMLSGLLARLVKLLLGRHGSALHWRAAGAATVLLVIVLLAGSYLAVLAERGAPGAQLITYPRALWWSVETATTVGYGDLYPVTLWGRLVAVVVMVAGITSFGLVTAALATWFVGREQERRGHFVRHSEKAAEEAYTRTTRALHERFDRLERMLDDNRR
The series is described as follows: SDS-PAGE; 12% SDS-PAGE of the detergent-solubilised (DDM) channel at room temperature, 10 mM Na+, pH 7.0 and pH 4.0, without or with 1 or 100 µM TOA+. The note with it: remark: other sources report otherwise.

Series [2] concerns the molecule itself. The series is described as follows: FRET or BRET; homo-FRET among the W67 residues of the subunits, from steady-state and time-resolved fluorescence anisotropy; 5 µM protein in 5 mM DDM, pH 7.0 or pH 4.0, K+ titrated, with or without 100 µM TOA+. (In general: In BRET a luciferase serves as donor, and the signal depends on an acceptor being close.)

Consider `CCCCCCCC[N+](CCCCCCCC)(CCCCCCCC)CCCCCCCC` [tetraoctylammonium], for which the Kd at KcsA is 180 nM; on W67 KcsA, 107 nM.

B1: wild-type KcsA potassium channel, P0A334 1-160 (natural protein)
chain: MPPMLSGLLARLVKLLLGRHGSALHWRAAGAATVLLVIVLLAGSYLAVLAERGAPGAQLITYPRALWWSVETATTVGYGDLYPVTLWGRLVAVVVMVAGITSFGLVTAALATWFVGREQERRGHFVRHSEKAAEEAYTRTTRALHERFDRLERMLDDNRR
In turn, B1 gave a stoichiometry N in series [1] of 4.

B2: W67 KcsA (quadruple mutant W26, 68, 87, 113F KcsA with a single tryptophan, W67, per subunit) (natural protein, Streptomyces lividans, UniProt P0A334 1-160, looked up)
chain: MPPMLSGLLARLVKLLLGRHGSALHFRAAGAATVLLVIVLLAGSYLAVLAERGAPGAQLITYPRALWFSVETATTVGYGDLYPVTLFGRLVAVVVMVAGITSFGLVTAALATFFVGREQERRGHFVRHSEKAAEEAYTRTTRALHERFDRLERMLDDNRR
notes: KcsA, prokaryotic K+ channel from Streptomyces lividans, native Trp residues 26, 68, 87 and 113 mutated to Phe; also called KcsA W26, 68, 87, 113F; W67 mutant channel
For the molecule B2, in series [2], the binding result is given as “binds”.

Usually Kd stands for a measure of binding affinity in units of concentration. The term stoichiometry N denotes the number of molecules, sites or subunits per partner or assembly.
